# ChEMBL document CHEMBL4393730, “Thiazolidinedione and thiazole derivatives potentiate norfloxacin activity against NorA efflux pump over expression in Staphylococcus aureus 1199B strains” (Bioorg Med Chem, 2019)
# Legend:
# [1] = Cytotoxicity against mouse L929 cells assessed as cell growth inhibition at 50 ug/ml measured after 72 hrs by MTT method relative to control; type: cell-based; settings: read-out: GI
# Staphylococcus aureus [2] = experiment: Antibacterial activity against wild type Staphylococcus aureus 1199 devoid of norA efflux pump assessed as norfloxacin MIC measured after 24 hrs by broth microdilution method (reference value: 64 +/- 1 microg/ml); type: functional; settings: Staphylococcus aureus, 1199, 24 h
# [3] = molecular target: T1, Quinolone resistance protein NorA (Staphylococcus aureus) (UniProt P0A0J7); experiment: Inhibition of NorA efflux pump in multidrug resistant Staphylococcus aureus 1199B mutant assessed as norfloxacin MIC measured after 24 hrs by broth microdilution method (reference value: 256 +/- 1 microg/ml)
# T1 sequence (whole entry): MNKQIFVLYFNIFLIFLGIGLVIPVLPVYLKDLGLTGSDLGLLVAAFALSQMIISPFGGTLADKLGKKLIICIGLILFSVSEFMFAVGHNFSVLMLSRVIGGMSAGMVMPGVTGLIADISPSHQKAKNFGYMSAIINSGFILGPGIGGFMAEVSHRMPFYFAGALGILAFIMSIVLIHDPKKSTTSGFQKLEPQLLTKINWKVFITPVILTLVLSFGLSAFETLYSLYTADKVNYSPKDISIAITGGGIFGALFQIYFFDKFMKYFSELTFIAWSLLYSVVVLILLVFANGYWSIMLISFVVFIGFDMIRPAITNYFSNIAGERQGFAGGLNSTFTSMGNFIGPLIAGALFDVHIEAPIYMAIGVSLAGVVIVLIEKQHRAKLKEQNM
# Staphylococcus aureus [4] = experiment: Antibacterial activity against wild type Staphylococcus aureus 1199 devoid of NorA efflux pump measured after 24 hrs by broth microdilution method; type: functional; settings: Staphylococcus aureus, 1199, 24 h
# Staphylococcus aureus [5] = experiment: Antibacterial activity against multidrug resistant Staphylococcus aureus 1199B mutant strain carrying NorA efflux pump assessed as growth inhibition measured after 24 hrs by broth microdilution method; type: functional
# Staphylococcus aureus [6] = experiment: Antibacterial activity against wild type Staphylococcus aureus 1199 devoid of norA efflux pump assessed as reduction in norfloxacin MIC measured after 24 hrs by broth microdilution method relative to norfloxacin; type: functional
# [7] = molecular target: T1, Quinolone resistance protein NorA (Staphylococcus aureus); experiment: Inhibition of NorA efflux pump in multidrug resistant Staphylococcus aureus 1199B mutant assessed as reduction in norfloxacin MIC measured after 24 hrs by broth microdilution method relative to norfloxacin
SMILES,"inhibition at 72 h, 50 ug/ml [1]",MIC (Staphylococcus aureus [2]),MIC [3],MIC (Staphylococcus aureus [4]),MIC (Staphylococcus aureus [5]),fold change (FC) (Staphylococcus aureus [6]),fold change (FC) [7]
COc1ccc(Br)cc1/C=N/Nc1nc(-c2ccccc2)cs1,24.4%,0.5 µg/mL,50.8 µg/mL,> 1020 µg/mL,> 1020 µg/mL,3,3
COc1ccc(Br)cc1/C=N/Nc1nc(-c2ccc(Br)cc2)cs1,17.3%,16 µg/mL,64 µg/mL,> 1020 µg/mL,> 1020 µg/mL,3,3
COc1ccc(Br)cc1/C=N/Nc1nc(-c2ccc(Cl)cc2)cs1,30.1%,0.63 µg/mL,40.3 µg/mL,> 1020 µg/mL,> 1020 µg/mL,3,3
COc1ccc(Br)cc1/C=N/Nc1nc(-c2ccc(F)cc2)cs1,31.2%,1020 µg/mL,1020 µg/mL,> 1020 µg/mL,> 1020 µg/mL,–,–
COc1ccc(Br)cc1/C=N/Nc1nc(-c2ccc(-c3ccccc3)cc2)cs1,15%,1020 µg/mL,1020 µg/mL,> 1020 µg/mL,> 1020 µg/mL,–,–
COc1ccc(Br)cc1/C=N/Nc1nc(-c2ccc([N+](=O)[O-])cc2)cs1,39.9%,5 µg/mL,128 µg/mL,> 1020 µg/mL,> 1020 µg/mL,–,–
